Measurements published in article PMC9505425, “Targeting of the Mitochondrial TET1 Protein by Pyrrolo[3,2-b]pyrrole Chelators” (International Journal of Molecular Sciences, 2022).
“And” between values parts separate entries of the source, which are not always exact repeats. Identical values can stand only once. “Also recorded” adds a separate entry of the source.

Key:
BT-20 cells = experiment: MTT cytotoxicity assay, BT-20; assay type: cell-based, human; details: for Cell viability % / IC50: 48 h; for IC50: BT-20, MTT
Method in brief: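 BT-20 human breast cells seeded 24 h, then treated 48 h with compound at 0.1–20 μM (DMSO below 1%). Viability by MTT (2 h, formazan in DMSO, A570) against untreated cells as 100%; IC50 from four replicates per test, three independent repeats.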

Caov-3 cells = experiment: MTT cytotoxicity assay, Caov-3; assay type: cell-based, human; details: for Cell viability % / IC50: 48 h; for IC50: Caov-3, MTT
Method in brief: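 Caov-3 ovarian adenocarcinoma cells, grown for 24 h after plating, were exposed for 48 h to compound at 0.1–20 μM with at most 1% DMSO. Viability was measured by MTT reduction (2 h, A570) relative to untreated cells. IC50 was the concentration inhibiting 50% of cell growth.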

TET1 protein = target: T1, TET1 protein (Homo sapiens, UniProt Q8NFU7); experiment: Fluorometric TET hydroxylase activity assay with purified TET1 enzyme; assay type: biochemical
T1 construct: purchased Active Motif, Carlsbad, CA, USA
Protocol: Figure 4 and Table S1 show the dependence of TET1 activity on the concentration of compound 1.
Compounds 1–6 were tested for the inhibition of the total 5mC hydroxylase TET enzyme using a purified TET1 enzyme (Active Motif, Carlsbad, CA, USA) by a fluorometric TET hydroxylase activity quantification kit (Abcam, Cambridge, UK). A total of 25 µg of purified TET1 protein was diluted in a TET assay buffer in a 5 mL volumetric flask, containing α-ketoglutarate and ferric sulfate. The concentrations of ascorbic acid, α-ketoglutarate, and ferric sulfate in the diluted TET assay buffer were 2, 1, and 0.1 mM, respectively. Tested compounds were dissolved in DMSO to obtain a concentration of 0.01 M. DMSO solutions of compounds 1–6 were then diluted with a TET assay buffer to concentrations of 10^−6, 10^−5, 10^−4, and 10^−3 M (in 10% of DMSO). Subsequently, 50 μL of the final TET assay buffer containing the TET1 protein and 5 μL of chelator’s solution was applied to each sample well. In control wells (TET1 without inhibitors), 5 μL of the final TET assay buffer with 10% DMSO was used instead of chelator’s solution. The final concentrations of chelators in a well plate were 10^−7, 10^−6, 10^−5, 10^−4, and 0 M with less than 1% of final concentration of DMSO. The following steps were performed according to manufacturer’s protocol. The TET1 protein converts methylated substrate to hydroxymethylated products, which could be recognized by a specific antibody. We determined the residual activity of the TET1 protein by measuring a fluorescence intensity on an enzyme-linked immunoabsorbent assay reader (ELISA), Infinite® 200 PRO (Tecan, Switzerland, Switzerland), at an excitation wavelength at 530 nm and an emission wavelength at 590 nm. Each concentration was measured twice within one test, and each test was repeated three times. IC50 values of active inhibitors were determined using GraphPad Prism 8 via nonlinear regression.

[1] = BT-20, 750 nM, repeats, 0.75 µM
[2] = Homo sapiens, BT-20, 48 h, BT-20, 500 nM, repeats, read-out: Cell viability %
[3] = Homo sapiens, BT-20, 48 h, BT-20, 750 nM, repeats, read-out: Cell viability %
[4] = Homo sapiens, BT-20, 48 h, BT-20, 2.5 uM, repeats, read-out: Cell viability %
[5] = Homo sapiens, BT-20, 48 h, BT-20, 5 uM, repeats, read-out: Cell viability %
[6] = Homo sapiens, BT-20, 48 h, BT-20, 7.5 uM, repeats, read-out: Cell viability %
[7] = Homo sapiens, BT-20, 48 h, BT-20, 10 uM, repeats, read-out: Cell viability %
[8] = Homo sapiens, BT-20, 48 h, BT-20, 15 uM, repeats, read-out: Cell viability %
[9] = Homo sapiens, BT-20, 48 h, BT-20, 20 uM, repeats, read-out: Cell viability %
[10] = Caov-3, 100 nM, repeats, 0.1 µM
[11] = Caov-3, 500 nM, repeats, 0.5 µM
[12] = Caov-3, 750 nM, repeats, 0.75 µM
[13] = Caov-3, 2.5 uM, repeats, 2.5 µM
[14] = Caov-3, 7.5 uM, repeats, 7.5 µM
[15] = Homo sapiens, Caov-3, 48 h, Caov-3, 100 nM, repeats, read-out: Cell viability %
[16] = Homo sapiens, Caov-3, 48 h, Caov-3, 7.5 uM, repeats, read-out: Cell viability %
[17] = Homo sapiens, Caov-3, 48 h, Caov-3, 10 uM, repeats, read-out: Cell viability %
[18] = Homo sapiens, Caov-3, 48 h, Caov-3, 15 uM, repeats, read-out: Cell viability %
[19] = Homo sapiens, Caov-3, 48 h, Caov-3, 20 uM, repeats, read-out: Cell viability %

T1 sequence (Q8NFU7 whole entry): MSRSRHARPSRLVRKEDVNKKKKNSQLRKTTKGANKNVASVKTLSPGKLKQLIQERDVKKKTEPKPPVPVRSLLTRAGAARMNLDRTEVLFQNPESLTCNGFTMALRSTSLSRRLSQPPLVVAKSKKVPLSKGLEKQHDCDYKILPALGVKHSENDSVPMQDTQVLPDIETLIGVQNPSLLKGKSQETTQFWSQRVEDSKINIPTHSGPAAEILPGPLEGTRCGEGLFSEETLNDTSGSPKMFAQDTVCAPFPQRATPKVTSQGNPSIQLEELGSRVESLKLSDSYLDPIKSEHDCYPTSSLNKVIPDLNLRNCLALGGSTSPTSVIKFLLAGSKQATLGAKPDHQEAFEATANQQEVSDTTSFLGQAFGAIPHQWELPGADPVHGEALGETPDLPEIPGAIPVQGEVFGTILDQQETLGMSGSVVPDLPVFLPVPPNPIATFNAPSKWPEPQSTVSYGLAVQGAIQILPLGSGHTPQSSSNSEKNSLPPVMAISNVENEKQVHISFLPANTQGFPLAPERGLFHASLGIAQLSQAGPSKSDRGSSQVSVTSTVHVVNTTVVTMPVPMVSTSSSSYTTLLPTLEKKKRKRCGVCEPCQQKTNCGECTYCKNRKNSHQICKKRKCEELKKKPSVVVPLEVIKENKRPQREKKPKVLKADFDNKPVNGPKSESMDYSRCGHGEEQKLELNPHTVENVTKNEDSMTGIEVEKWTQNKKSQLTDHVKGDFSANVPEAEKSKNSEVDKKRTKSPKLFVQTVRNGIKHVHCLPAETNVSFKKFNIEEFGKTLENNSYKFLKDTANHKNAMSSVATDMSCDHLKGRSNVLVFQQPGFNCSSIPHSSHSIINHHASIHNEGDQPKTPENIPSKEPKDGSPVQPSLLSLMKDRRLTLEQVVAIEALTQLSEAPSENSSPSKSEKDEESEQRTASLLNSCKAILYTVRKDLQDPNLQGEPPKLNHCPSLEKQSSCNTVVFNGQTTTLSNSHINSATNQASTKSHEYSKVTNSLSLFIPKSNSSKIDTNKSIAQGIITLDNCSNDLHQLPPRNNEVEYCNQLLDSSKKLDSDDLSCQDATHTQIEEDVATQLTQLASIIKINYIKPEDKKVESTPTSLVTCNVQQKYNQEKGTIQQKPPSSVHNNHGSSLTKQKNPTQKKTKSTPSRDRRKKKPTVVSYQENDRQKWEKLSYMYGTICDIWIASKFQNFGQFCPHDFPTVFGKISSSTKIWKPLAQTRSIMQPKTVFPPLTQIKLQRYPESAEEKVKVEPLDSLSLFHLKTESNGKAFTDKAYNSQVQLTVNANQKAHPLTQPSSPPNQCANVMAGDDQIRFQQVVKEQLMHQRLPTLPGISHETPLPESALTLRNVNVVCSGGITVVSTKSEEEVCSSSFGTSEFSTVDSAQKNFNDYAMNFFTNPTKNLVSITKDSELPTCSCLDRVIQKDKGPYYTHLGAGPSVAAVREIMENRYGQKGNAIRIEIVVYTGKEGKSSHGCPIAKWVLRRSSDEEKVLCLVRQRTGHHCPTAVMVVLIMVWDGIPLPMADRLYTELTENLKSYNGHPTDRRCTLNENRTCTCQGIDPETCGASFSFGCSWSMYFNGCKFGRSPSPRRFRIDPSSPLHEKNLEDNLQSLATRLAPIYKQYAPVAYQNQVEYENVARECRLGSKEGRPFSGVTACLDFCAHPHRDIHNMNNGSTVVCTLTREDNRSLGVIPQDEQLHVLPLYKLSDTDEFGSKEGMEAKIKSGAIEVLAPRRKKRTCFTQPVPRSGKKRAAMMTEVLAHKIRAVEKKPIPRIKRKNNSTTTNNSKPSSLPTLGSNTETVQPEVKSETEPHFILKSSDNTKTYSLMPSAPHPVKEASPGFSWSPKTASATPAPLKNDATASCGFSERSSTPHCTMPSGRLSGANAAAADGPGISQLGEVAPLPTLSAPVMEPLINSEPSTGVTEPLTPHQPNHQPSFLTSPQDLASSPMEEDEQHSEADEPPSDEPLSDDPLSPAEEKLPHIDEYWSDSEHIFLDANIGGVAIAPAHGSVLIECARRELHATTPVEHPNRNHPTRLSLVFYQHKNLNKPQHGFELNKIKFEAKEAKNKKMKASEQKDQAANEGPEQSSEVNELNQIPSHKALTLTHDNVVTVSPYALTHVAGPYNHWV

Cc1ccc(-n2c(-c3ccc(C(=O)NN)cc3)cc3c2cc(-c2ccc(C(=O)NN)cc2)n3-c2ccc(C)cc2)cc1 [Compound 1]
Cell viability % (BT-20 cells; BT-20, 100 nM, repeats, 0.1 µM): 100.0252% and 99.53% | Cell viability % (BT-20 cells; BT-20, 500 nM, repeats, 0.5 µM): 106.1555% and 91.85% | Cell viability % (BT-20 cells; [1]): 98.6% and 95.52% | Cell viability % (BT-20 cells; BT-20, 1 uM, repeats, 1 µM): 98.92% and 100.049% | Cell viability % (BT-20 cells; BT-20, 2.5 uM, repeats, 2.5 µM): 55.65% and 54.6523% | Cell viability % (BT-20 cells; BT-20, 5 uM, repeats, 5 µM): 56.31% and 56.39% | Cell viability % (BT-20 cells; BT-20, 7.5 uM, repeats, 7.5 µM): 50.1262% and 42.238% | Cell viability % (BT-20 cells; BT-20, 10 uM, repeats, 10 µM): 44.0939% and 37.78% | Cell viability % (BT-20 cells; BT-20, 15 uM, repeats, 15 µM): 32.99% and 30.02% | Cell viability % (BT-20 cells; BT-20, 20 uM, repeats, 20 µM): 18.85% and 15.23% | viability at 0.1 µM (BT-20 cells; Homo sapiens, BT-20, 48 h, BT-20, 100 nM, repeats, read-out: Cell viability %): 102% | viability at 0.5 µM (BT-20 cells; [2]): 87.8% | viability at 0.75 µM (BT-20 cells; [3]): 91.2% | viability at 1 µM (BT-20 cells; Homo sapiens, BT-20, 48 h, BT-20, 1 uM, repeats, read-out: Cell viability %): 103% | viability at 2.5 µM (BT-20 cells; [4]): 69.2% | viability at 5 µM (BT-20 cells; [5]): 56.8% | viability at 7.5 µM (BT-20 cells; [6]): 41.2% | viability at 10 µM (BT-20 cells; [7]): 41.5% | viability at 15 µM (BT-20 cells; [8]): 33.5% | viability at 20 µM (BT-20 cells; [9]): 19.8% | IC50 (BT-20 cells; Homo sapiens): 5.94 µM | Cell viability % (Caov-3 cells; [10]): 80.61% and 94.8% | Cell viability % (Caov-3 cells; [11]): 91.36% and 100.9421% and 76.35% | Cell viability % (Caov-3 cells; [12]): 95.41% and 77.67% | Cell viability % (Caov-3 cells; Caov-3, 1 uM, repeats, 1 µM): 71.07% and 89.66% | Cell viability % (Caov-3 cells; [13]): 71.79% and 55.75% | Cell viability % (Caov-3 cells; Caov-3, 5 uM, repeats, 5 µM): 48.77% and 58.08% | Cell viability % (Caov-3 cells; [14]): 51.68% and 65.52% | Cell viability % (Caov-3 cells; Caov-3, 10 uM, repeats, 10 µM): 53.56% and 43.67% | Cell viability % (Caov-3 cells; Caov-3, 15 uM, repeats, 15 µM): 35.1% and 41.9% | Cell viability % (Caov-3 cells; Caov-3, 20 uM, repeats, 20 µM): 35.73% and 39.69% | viability at 0.1 µM (Caov-3 cells; [15]): 97.9% | viability at 0.75 µM (Caov-3 cells; Homo sapiens, Caov-3, 48 h, Caov-3, 750 nM, repeats, read-out: Cell viability %): 78.5% | viability at 1 µM (Caov-3 cells; Homo sapiens, Caov-3, 48 h, Caov-3, 1 uM, repeats, read-out: Cell viability %): 81.2% | viability at 2.5 µM (Caov-3 cells; Homo sapiens, Caov-3, 48 h, Caov-3, 2.5 uM, repeats, read-out: Cell viability %): 55.9% | viability at 5 µM (Caov-3 cells; Homo sapiens, Caov-3, 48 h, Caov-3, 5 uM, repeats, read-out: Cell viability %): 50.9% | viability at 7.5 µM (Caov-3 cells; [16]): 56.4% | viability at 10 µM (Caov-3 cells; [17]): 45.1% | viability at 15 µM (Caov-3 cells; [18]): 45.9% | viability at 20 µM (Caov-3 cells; [19]): 28.5% | IC50 (Caov-3 cells; Homo sapiens): 6.48 µM | average residual TET activity (%) (TET1 protein; Log c 4): 5.108% | average residual TET activity (%) (TET1 protein; Log c 5): 19.97% | average residual TET activity (%) (TET1 protein; Log c 6): 56.08% | average residual TET activity (%) (TET1 protein; Log c 7): 82.59%

CCN(CC)c1ccc(/C=N/NC(=O)c2ccc(-c3cc4c(cc(-c5ccc(C(=O)N/N=C/c6ccc(N(CC)CC)cc6O)cc5)n4-c4ccc(C)cc4)n3-c3ccc(C)cc3)cc2)c(O)c1 [Compound 2]
Cell viability % (BT-20 cells; BT-20, 100 nM, repeats, 0.1 µM): 89.53% and 96.38% and 111.3369% | Cell viability % (BT-20 cells; BT-20, 500 nM, repeats, 0.5 µM): 89.9% and 93.14% | Cell viability % (BT-20 cells; [1]): 105.3004% and 102.8159% | Cell viability % (BT-20 cells; BT-20, 1 uM, repeats, 1 µM): 123.7041% and 111.0298% and 97.09% | Cell viability % (BT-20 cells; BT-20, 2.5 uM, repeats, 2.5 µM): 100.513% and 96.3761% | Cell viability % (BT-20 cells; BT-20, 5 uM, repeats, 5 µM): 79.33% and 68.98% | Cell viability % (BT-20 cells; BT-20, 7.5 uM, repeats, 7.5 µM): 62.62% and 57% | Cell viability % (BT-20 cells; BT-20, 10 uM, repeats, 10 µM): 57.5% and 51.13% | Cell viability % (BT-20 cells; BT-20, 15 uM, repeats, 15 µM): 49.9% and 44.54% | Cell viability % (BT-20 cells; BT-20, 20 uM, repeats, 20 µM): 24.61% and 32.37% | viability at 0.5 µM (BT-20 cells; [2]): 89.8% | viability at 0.75 µM (BT-20 cells; [3]): 88.9% | viability at 2.5 µM (BT-20 cells; [4]): 98.6% | viability at 5 µM (BT-20 cells; [5]): 73.8% | viability at 7.5 µM (BT-20 cells; [6]): 60.2% | viability at 10 µM (BT-20 cells; [7]): 45% | viability at 15 µM (BT-20 cells; [8]): 46.7% | viability at 20 µM (BT-20 cells; [9]): 28.3% | IC50 (BT-20 cells; Homo sapiens): 11.9 µM | Cell viability % (Caov-3 cells; [10]): 105.779% and 93.87% | Cell viability % (Caov-3 cells; [11]): 78.8105% and 77.85% | Cell viability % (Caov-3 cells; [12]): 73.37% and 52.9% and 76.29% | Cell viability % (Caov-3 cells; Caov-3, 1 uM, repeats, 1 µM): 78.5% and 67.16% and 48.54% | Cell viability % (Caov-3 cells; [13]): 64.6096% and 82.47% and 61.81% | Cell viability % (Caov-3 cells; Caov-3, 5 uM, repeats, 5 µM): 59.21% and 86.03% and 70.4727% | Cell viability % (Caov-3 cells; [14]): 79.2% and 67.97% | Cell viability % (Caov-3 cells; Caov-3, 10 uM, repeats, 10 µM): 51.36% and 52.95% | Cell viability % (Caov-3 cells; Caov-3, 15 uM, repeats, 15 µM): 50.9752% and 42.33% | Cell viability % (Caov-3 cells; Caov-3, 20 uM, repeats, 20 µM): 25.3% and 23.25% | viability at 0.1 µM (Caov-3 cells; [15]): 95.3% | viability at 0.5 µM (Caov-3 cells; Homo sapiens, Caov-3, 48 h, Caov-3, 500 nM, repeats, read-out: Cell viability %): 76.2% | viability at 7.5 µM (Caov-3 cells; [16]): 73.3% | viability at 10 µM (Caov-3 cells; [17]): 52.1% | viability at 15 µM (Caov-3 cells; [18]): 42.8% | viability at 20 µM (Caov-3 cells; [19]): 28.4% | IC50 (Caov-3 cells; Homo sapiens): 13.3 µM | inhibitory activity towards TET1 (TET1 protein; screened at 10^−7 to 10^−4 M): no inhibitory effect; also recorded: no significant inhibition
